“Also recorded” adds a separate entry of the source.
Tested on: glutathione peroxidase (GPx)
Assay: Glutathione peroxidase activity in CYP-CIPN rat tissues
Type: in vivo
Details: 8-AG 5 mg/kg/day in drinking water
Protocol: Animals. This study employed female Harlan Sprague Dawley (HSD) rats (3-4 mo; Envigo, Indianapolis, IN) and were divided into the following groups: 1) Control, 2) Cyclophosphamide (CYP, 75 mg/kg i.p. in saline vehicle; administered on days 0, 3 and 6); 3) 8-aminoguanine (8-AG; 5 mg/kg/day in drinking water; beginning 2 weeks prior to CYP and continuing until sacrifice (day 8)). The dose of 8-AG is based on our preliminary and published experiments. […] The investigation conforms to the Guide for the Care and Use of Laboratory Animals published by the US National Institutes of Health (NIH Publication No. 85-23, revised 1996). […]
Western immunoblotting: Following the testing paradigms, rats were deeply anesthetized and tissues (e.g., epidermis, peripheral sciatic nerves, spinal cord segments (L3-L5) and dorsal root ganglia (L3-L5) were removed, and a portion of each preparation was homogenized using Lysing Matrix D in a FASTPREP® 24 instrument (MP Biomedicals, Solon, OH) in HBSS [5 mM KCl, 0.3 mM KH2PO4, 138 mM NaCl, 4 mM NaHO3, 0.3 mM Na2HCO3, 0.3 mM Na2HPO4, 5.6 mM glucose and 10 mM Hepes, pH 7.4 containing complete protease inhibitor cocktail (1 tablet/10 ml, Roche, Indianapolis, IN)] and phosphatase inhibitor cocktail (Sigma, 1:100). […] The protein concentrations of the supernatants were determined using the Pierce BCA protein assay (Thermo Scientific, Rockford, IL). […]

Structure (SMILES): Nc1nc2[nH]c(N)nc2c(=O)[nH]1 [8-AG, 8-Aminoguanine]
- effect on CYP-induced increase in GPx activity (epidermis): significantly decreased; also recorded: restored values to that of a control state
- effect on CYP-induced increase in GPx activity (peripheral (sciatic) nerves): normalized; also recorded: prevented

— US20250127787A1, “METHODS FOR TREATING PERIPHERAL NEUROPATHY” (University of Pittsburgh - Of the Commonwealth System of …, priority 2021, published 2025)
